Experimental data published in PMC7403827 (Clinical and Translational Medicine, 2020).
Read-outs that look alike come from different tables or passages of the source.

What was measured:
CYP3A4 = test system: CYP3A4; design: method as in PMID 28967981; conditions: cited from earlier work
[1] = previously reported, cited from earlier work
[2] = test system: EGFR‐mutant advanced non‐squamous NSCLC; assay: Antitumor response (RECIST 1.1), PFS and OS; conditions: for median PFS: Kaplan‐Meier
Text: Other endpoints included objective response rate (ORR) and disease control rate (DCR), progression‐free survival (PFS), and overall survival (OS). […] Combination therapy was continued until the status of progression disease, unbearable toxicity, withdrawal of informed consent form or discontinuation that was at the discretion of the principal investigator (see Supporting Information).
Adverse events (AEs) in line with the version 4.0 of National Cancer Institute's Common Terminology Criteria for Adverse Events (CTCAE 4.0) were evaluated by the investigators. AEs were strictly recorded from the timepoint that ICF was obtained to 28 days after the finish of study. Imaging examinations was conducted before treatment, at the finish of the first follow‐up, and every other two follow‐ups afterward by taking the same examinations. Response of tumor was assessed based on the RECIST 1.1 guidelines. Primary assessment for antitumor response: (a) ORR, defining as the proportion of participants that achieved a complete response (CR) or a partial response (PR); (b) disease control rate (DCR), defining as the proportion of participants reached a status of CR or PR or stable disease (SD). After 4 weeks, best overall response (BOR) was confirmed.
Patients in the ITT analysis who had complete safety records were pooled in the safety set (SS). The qualitative and quantitative data were summarized with the descriptive statistics. Efficacy was also assessed in the ITT analysis. The Kaplan‐Meier method described PFS and OS. Survival distribution differences were evaluated by the log‐rank test. […] Fisher's exact test compared the response rate in the various subgroups. Two‐sided tests were applied. […] All statistical analyses and graphs were made by the Statistical Package for Social Sciences (SPSS) 23.0 and GraphPad Prism 7.

[3] = Apatinib 250mg, ref [1] Yu M et al., Clinical Pharmacokinetics 2017
[4] = Apatinib 500mg, ref [2] Ding J et al., J Chromatogr B 2012
[5] = Apatinib Dose Cohort 250mg + gefitinib 250 mg, evaluable patients
[6] = Apatinib Dose Cohort 500mg + gefitinib 250 mg, evaluable patients
[7] = Total, both apatinib dose cohorts (n = 11)

N#CC1(c2ccc(NC(=O)c3cccnc3NCc3ccncc3)cc2)CCCC1 [Apatinib]
inhibitory effect on CYP3A4 (CYP3A4): strong inhibitory effect
AUC0-24 [1, 3]: 3538 (1996-6025) ng·h/ml
Cmax [1, 3]: 581 (321-1216) ng/ml
AUC0-24 [1, 4]: 11295 (70) ng·h/ml
Cmax [1, 4]: 1521 (75) ng/ml
Tmax [1, 4]: 3.5 (3-8) h
CR, patients [2, 5]: 0
Disease Control CR+PR+SD [2, 5]: 6 (100.0) n (%)
Objective Response CR+PR [2, 5]: 5 (83.3) n (%)
PD, patients [2, 5]: 0
PR, patients [2, 5]: 5
CR, patients [2, 6]: 0
Disease Control CR+PR+SD [2, 6]: 4 (80.0) n (%)
Objective Response CR+PR [2, 6]: 4 (80.0) n (%)
PD, patients [2, 6]: 1
PR, patients [2, 6]: 4
median PFS ([2]; Cohort A (apatinib 500 mg + gefitinib 250 mg)): 19.2 months
ORR ([2]; Cohort A: apatinib 500 mg + gefitinib 250 mg (4/5)): 80%
median PFS ([2]; Cohort B (apatinib 250 mg + gefitinib 250 mg)): 13.4 months
ORR ([2]; Cohort B: apatinib 250 mg + gefitinib 250 mg (5/6)): 83.3%
CR, patients [2, 7]: 0
Disease Control CR+PR+SD [2, 7]: 10 (90.9) n (%)
Objective Response CR+PR [2, 7]: 9 (81.8) n (%)
PD, patients [2, 7]: 1
PR, patients [2, 7]: 9
DCR ([2]; apatinib 250 mg group + gefitinib 250 mg (6/6)): 100%
DCR ([2]; apatinib 500 mg group + gefitinib 250 mg (4/5)): 80.0%
